# Laboratory results taken from ChEMBL document CHEMBL3217469, “Redesigning the designer drug ecstasy: non-psychoactive MDMA analogues exhibiting Burkitt's lymphoma cytotoxicity” (Medchemcomm, 2010).
# Columns and labels:
# [1] = Cytotoxicity against human L3055 cells assessed as reduction in [3H]thymidine incorporation after 24 hrs by propidium iodide staining-based assay; format: functional, cell-based
# [2] = Ratio of MDMA IC50 to compound IC50 for human L3055 cells; format: functional
# SH-SY5Y = test: Neurotoxicity against human SH-SY5Y cells at 1 to 600 uM after 24 hrs by Alamar Blue assay; format: toxicity, cell-based
# [3] = target: Sodium-dependent serotonin transporter (Rattus norvegicus, UniProt P31652); test: Displacement of [3H]citalopram from SERT in Sprague-Dawley rat whole brain after 60 mins by scintillation counting analysis
# Chain of Sodium-dependent serotonin transporter (P31652 whole entry): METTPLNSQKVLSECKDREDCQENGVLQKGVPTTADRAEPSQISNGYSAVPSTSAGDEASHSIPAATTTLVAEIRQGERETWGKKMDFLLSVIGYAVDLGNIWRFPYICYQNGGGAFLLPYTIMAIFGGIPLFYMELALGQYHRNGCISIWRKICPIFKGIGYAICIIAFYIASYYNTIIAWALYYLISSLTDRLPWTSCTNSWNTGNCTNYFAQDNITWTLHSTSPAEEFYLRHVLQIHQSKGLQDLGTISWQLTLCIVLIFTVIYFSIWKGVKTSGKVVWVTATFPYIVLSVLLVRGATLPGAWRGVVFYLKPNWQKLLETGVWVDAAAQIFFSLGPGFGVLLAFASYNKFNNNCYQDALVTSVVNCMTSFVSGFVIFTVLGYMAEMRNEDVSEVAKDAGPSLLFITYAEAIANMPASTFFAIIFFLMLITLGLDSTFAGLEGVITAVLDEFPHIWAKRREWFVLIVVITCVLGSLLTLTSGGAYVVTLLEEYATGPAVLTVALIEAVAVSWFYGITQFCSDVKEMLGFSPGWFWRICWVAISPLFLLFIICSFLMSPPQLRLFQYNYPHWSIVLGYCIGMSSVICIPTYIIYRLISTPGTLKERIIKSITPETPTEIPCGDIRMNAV
# Rattus norvegicus [4] = test: Induction of psychotic activity in Wistar rat assessed as reduction in prepulse inhibition of acoustic startle reflex at 4.4 to 88 umol/kg; format: organism-based; conditions: in vivo
# Transporter = Transporter (Rattus norvegicus, UniProt Q63380); test: Displacement of [3H]nisoxetine from NET in Sprague-Dawley rat cerebellum after 60 mins by scintillation counting analysis
# Chain of Transporter (Q63380 whole entry): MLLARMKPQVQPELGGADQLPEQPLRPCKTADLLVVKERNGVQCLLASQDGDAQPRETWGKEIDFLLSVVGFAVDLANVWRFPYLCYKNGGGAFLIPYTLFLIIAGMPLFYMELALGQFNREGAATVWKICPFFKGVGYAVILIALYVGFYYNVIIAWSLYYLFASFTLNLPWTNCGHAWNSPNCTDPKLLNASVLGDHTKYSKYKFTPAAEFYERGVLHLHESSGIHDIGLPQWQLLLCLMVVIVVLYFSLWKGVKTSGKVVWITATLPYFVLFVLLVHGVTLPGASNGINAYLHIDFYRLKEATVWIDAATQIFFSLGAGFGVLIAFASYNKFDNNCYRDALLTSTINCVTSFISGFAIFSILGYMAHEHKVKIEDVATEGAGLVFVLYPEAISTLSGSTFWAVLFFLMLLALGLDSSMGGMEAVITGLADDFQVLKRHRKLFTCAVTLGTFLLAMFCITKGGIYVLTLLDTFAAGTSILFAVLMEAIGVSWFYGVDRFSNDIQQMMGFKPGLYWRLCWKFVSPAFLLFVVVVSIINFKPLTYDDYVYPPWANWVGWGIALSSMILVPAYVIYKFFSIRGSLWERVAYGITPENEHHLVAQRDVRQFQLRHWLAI
# Serotonin 1B/1D receptor = Serotonin 1B/1D receptor (Rattus norvegicus, UniProt P28564+P28565); test: Displacement of [3H]GR125743 from 5-HT1B/1D receptor in Sprague-Dawley rat whole brain after 60 mins by scintillation counting analysis
# [5] = target: Sodium-dependent dopamine transporter (Rattus norvegicus, UniProt P23977); test: Displacement of [3H]GBR12935 from DAT in Sprague-Dawley rat striatum after 45 mins by scintillation counting analysis
# Chain of Sodium-dependent dopamine transporter (P23977 whole entry): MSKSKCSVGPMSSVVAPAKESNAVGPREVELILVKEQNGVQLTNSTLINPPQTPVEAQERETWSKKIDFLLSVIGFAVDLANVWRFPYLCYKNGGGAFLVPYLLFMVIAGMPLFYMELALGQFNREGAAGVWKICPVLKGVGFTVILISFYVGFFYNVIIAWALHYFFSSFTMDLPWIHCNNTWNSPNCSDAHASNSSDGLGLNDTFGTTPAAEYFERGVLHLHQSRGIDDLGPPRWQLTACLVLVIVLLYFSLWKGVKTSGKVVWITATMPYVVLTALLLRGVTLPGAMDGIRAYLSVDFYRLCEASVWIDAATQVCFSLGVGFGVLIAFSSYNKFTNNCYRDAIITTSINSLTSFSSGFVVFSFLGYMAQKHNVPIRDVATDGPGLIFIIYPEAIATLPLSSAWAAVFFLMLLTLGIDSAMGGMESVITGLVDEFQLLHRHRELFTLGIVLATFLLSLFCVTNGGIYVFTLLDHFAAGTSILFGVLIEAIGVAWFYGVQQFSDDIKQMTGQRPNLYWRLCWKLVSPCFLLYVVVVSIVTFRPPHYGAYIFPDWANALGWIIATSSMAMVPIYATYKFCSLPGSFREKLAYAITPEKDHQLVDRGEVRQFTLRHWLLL
# [6] = target: 5-hydroxytryptamine receptor 2A (Rattus norvegicus, UniProt P14842); test: Displacement of [3H]-ketanserin from 5-HT2A receptor in Sprague-Dawley rat cerebral cortex after 45 mins by scintillation counting analysis; format: tissue-based
# Chain of 5-hydroxytryptamine receptor 2A (P14842 whole entry): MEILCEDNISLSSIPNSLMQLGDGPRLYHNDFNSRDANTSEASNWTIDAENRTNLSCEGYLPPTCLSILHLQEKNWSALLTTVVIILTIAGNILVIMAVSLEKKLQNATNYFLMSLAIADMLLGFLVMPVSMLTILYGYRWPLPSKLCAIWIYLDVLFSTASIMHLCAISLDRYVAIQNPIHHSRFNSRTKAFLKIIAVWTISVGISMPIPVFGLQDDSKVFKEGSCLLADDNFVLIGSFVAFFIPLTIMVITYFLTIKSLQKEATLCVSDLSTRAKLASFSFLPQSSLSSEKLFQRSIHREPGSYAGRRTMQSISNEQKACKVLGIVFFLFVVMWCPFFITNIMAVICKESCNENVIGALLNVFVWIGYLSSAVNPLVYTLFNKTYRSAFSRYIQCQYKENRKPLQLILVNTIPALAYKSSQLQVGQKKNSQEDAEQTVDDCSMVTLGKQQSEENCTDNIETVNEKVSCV
# [7] = target: T1, 5-hydroxytryptamine receptor 2C (Rattus norvegicus, UniProt P08909); test: Displacement of [3H]mesulergine from 5-HT2C receptor in Sprague-Dawley rat whole brain after 60 mins by scintillation counting analysis
# T1 sequence (P08909 whole entry): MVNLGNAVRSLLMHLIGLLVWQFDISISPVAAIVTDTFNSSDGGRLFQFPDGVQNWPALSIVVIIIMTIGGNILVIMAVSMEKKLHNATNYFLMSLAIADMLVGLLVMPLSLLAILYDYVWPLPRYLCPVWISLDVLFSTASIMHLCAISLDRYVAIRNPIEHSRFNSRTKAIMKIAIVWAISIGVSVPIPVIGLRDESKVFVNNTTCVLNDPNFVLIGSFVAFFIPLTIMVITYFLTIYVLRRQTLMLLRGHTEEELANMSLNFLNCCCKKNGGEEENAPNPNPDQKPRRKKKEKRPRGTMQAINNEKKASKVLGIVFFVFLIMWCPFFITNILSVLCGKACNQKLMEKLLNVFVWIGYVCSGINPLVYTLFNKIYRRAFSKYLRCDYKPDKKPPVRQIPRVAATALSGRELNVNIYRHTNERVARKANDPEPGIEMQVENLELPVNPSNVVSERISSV
# [8] = target: T2, 5-hydroxytryptamine receptor 1A (Rattus norvegicus, UniProt P19327); test: Displacement of [3H]WAY100635 from 5-HT1A receptor in Sprague-Dawley rat cerebral cortex after 60 mins by scintillation counting analysis; format: tissue-based
# T2 sequence (P19327 whole entry): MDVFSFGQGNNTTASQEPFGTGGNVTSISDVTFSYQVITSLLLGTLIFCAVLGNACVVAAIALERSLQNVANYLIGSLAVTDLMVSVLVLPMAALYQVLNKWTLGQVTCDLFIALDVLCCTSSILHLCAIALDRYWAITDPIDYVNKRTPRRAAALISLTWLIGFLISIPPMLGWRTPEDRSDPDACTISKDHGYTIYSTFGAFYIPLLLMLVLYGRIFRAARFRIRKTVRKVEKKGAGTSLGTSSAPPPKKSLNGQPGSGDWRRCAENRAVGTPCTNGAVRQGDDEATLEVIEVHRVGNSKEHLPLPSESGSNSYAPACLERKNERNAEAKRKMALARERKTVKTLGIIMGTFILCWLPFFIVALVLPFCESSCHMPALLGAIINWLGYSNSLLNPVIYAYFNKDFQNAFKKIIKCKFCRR
# Rattus norvegicus [9] = species: Rattus norvegicus; test: Induction of psychotic activity in Wistar rat assessed as reduction in prepulse inhibition of acoustic startle reflex; format: organism-based; conditions: in vivo
smiles,measurement,setting,value
CNC(Cc1ccc2c(c1)OCO2)Cc1ccc2c(c1)OCO2,IC50,[1],36.7 µM
CNC(Cc1ccc2c(c1)OCO2)c1ccccc1C (racemic),IC50,[1],65 µM
CNC(Cc1ccc2c(c1)OCO2)c1cccc(C)c1 (racemic),IC50,[1],51 µM
CNC(Cc1ccc2c(c1)OCO2)c1ccc(C)cc1 (racemic),IC50,[1],42 µM
CNC(Cc1ccc2c(c1)OCO2)c1ccccc1OC (racemic),IC50,[1],92 µM
CNC(Cc1ccc2c(c1)OCO2)c1cccc(OC)c1 (racemic),IC50,[1],80 µM
CNC(Cc1ccc2c(c1)OCO2)c1ccc(OC)cc1 (racemic),IC50,[1],69 µM
CNC(Cc1ccc2c(c1)OCO2)c1ccc(F)cc1 (racemic),IC50,[1],63 µM
CNC(Cc1ccc2c(c1)OCO2)C1CCCCC1 (racemic),IC50,[1],81 µM
CNC(Cc1ccccc1)Cc1ccc2c(c1)OCO2 (racemic),IC50,[1],69 µM
CNC(Cc1ccc2c(c1)OCO2)c1cccc2ccccc12.Cl (racemic),Ratio IC50,[2],100
same,Activity,SH-SY5Y,Non-toxic
same,IC50,[1],12.6 µM
CNC(Cc1ccc2c(c1)OCO2)c1ccc2ccccc2c1.Cl (racemic),Ratio IC50,[2],100
same,Activity,SH-SY5Y,Non-toxic
same,IC50,[1],6.6 µM
CNC(Cc1ccc2c(c1)OCO2)c1ccc(-c2ccccc2)cc1 (racemic),IC50,[1],6 µM
CCC(Cc1ccc2c(c1)OCO2)NC (racemic),IC50,[1],707 µM
CCCC(Cc1ccc2c(c1)OCO2)NC (racemic),IC50,[1],379 µM
CNC(Cc1ccc2c(c1)OCO2)C1CC1 (racemic),IC50,[1],801 µM
CNC(Cc1ccc2c(c1)OCO2)C(C)C (racemic),IC50,[1],651 µM
CNC(Cc1ccc2c(c1)OCO2)C(C)(C)C (racemic),IC50,[1],447 µM
CNC(Cc1ccc2c(c1)OCO2)c1ccccc1.Cl (racemic),Ratio IC50,[2],7
same,Ki,[3],1.32 µM
same,Activity,Rattus norvegicus [4],Non-toxic
same,Ki,Transporter,0.7 µM
same,Ki,Serotonin 1B/1D receptor,> 10 µM
same,Ki,[5],> 10 µM
same,Ki,[6],1.23 µM
same,Ki,[7],> 10 µM
same,Ki,[8],> 10 µM
same,Activity,SH-SY5Y,Toxic
same,IC50,[1],76 µM
CNC(C)Cc1ccc2c(c1)OCO2.Cl (centres undefined) [MIDOMAFETAMINE HYDROCHLORIDE],Ki,[3],0.21 µM
same,Activity,Rattus norvegicus [9],Dose-dependent effect
same,Ki,Transporter,> 10 µM
same,Ki,Serotonin 1B/1D receptor,> 10 µM
same,Ki,[5],> 10 µM
same,Ki,[6],> 10 µM
same,Ki,[7],> 10 µM
same,Ki,[8],> 10 µM
same,Activity,SH-SY5Y,Toxic
same,IC50,[1],507 µM
COc1ccc(CC(C)N)cc1 (centres undefined) [PARA-METHOXYAMPHETAMINE],Activity,Rattus norvegicus [9],Dose-dependent effect
